Test results published in ChEMBL document CHEMBL5230096, “A comprehensive insight on the recent development of Cyclic Dependent Kinase inhibitors as anticancer agents” (Eur J Med Chem, 2020).

Assays:
CDK2/Cyclin A2 [1] = target: T1, CDK2/Cyclin A2 (Homo sapiens, UniProt P24941); test: Inhibition of CDK2/cyclin A2 (unknown origin) using histone as substrate in presence of ATP by luminescent ADP detection assay; type: protein-complex assay
[2] = system: Panel NCI-60 (60 carcinoma cell lines); test: Antiproliferative activity against human Panel NCI-60 (60 carcinoma cell lines) cells assessed as inhibition of cell growth at 0.00001 M incubated for 48 hrs by sulforhodamine B assay; type: functional; set-up: scale not given: the % may be the effect or the level left; conditions: dose 10 µM
A549 = test: Antiproliferative activity against human A549 cells assessed as reduction in cell viability by MTT assay; type: functional, cell-based
Caco-2 = test: Antiproliferative activity against human Caco-2 cells assessed as reduction in cell viability by MTT assay; type: functional, cell-based
MCF7 [3] = test: Antiproliferative activity against human MCF7 cells assessed as reduction in cell viability by MTT assay; type: functional, cell-based
HepG2 = test: Antiproliferative activity against human HepG2 cells assessed as reduction in cell viability by MTT assay; type: functional, cell-based
[4] = target: T2, Cyclin-dependent kinase 2 (Homo sapiens, UniProt P24941); test: Inhibition of human CDK2 using TMB as substrate preincubated for 210 mins followed by substrate addition and measured after 15 to 25 mins by spectrophotometric analysis
MCF7 [5] = test: Antiproliferative activity against human MCF7 cells assessed as reduction in cell proliferation incubated for 48 hrs by Sulfo-Rhodamine-B stain (SRB) assay; type: functional, cell-based; conditions: MCF7, 48 h
[6] = target: Cyclin-dependent kinase 2/cyclin E (Homo sapiens, UniProt P24941); test: Inhibition of CDK2/Cyclin E (unknown origin) expressed in baculovirus infected Sf9 cells using histone H1 as substrate in presence of gamma32P-ATP by scintillation counter analysis
CDK9/cyclin T1 = CDK9/cyclin T1 (Homo sapiens, UniProt P50750); test: Inhibition of CDK9/cyclin T1 (unknown origin) assessed as inhibition constant; type: protein-complex assay
HeLa [7] = test: Antiproliferative activity against human Hela cells assessed as reduction in cell viability by MTT assay; type: functional, cell-based
MCF7 [8] = test: Anticancer activity against human MCF7 cells assessed as reduction in cell viability incubated for 48 hrs by MTT assay; type: functional, cell-based; conditions: MCF7, 48 h
HCT-116 = test: Anticancer activity against human HCT-116 cells assessed as reduction in cell viability incubated for 48 hrs by MTT assay; type: functional, cell-based; conditions: HCT-116, 48 h
[9] = target: Cyclin-dependent kinase 1 (Homo sapiens, UniProt P06493); test: Inhibition of CDK1 (unknown origin) assessed as inhibition constant
CDK7/Cyclin H/MNAT1 = CDK7/Cyclin H/MNAT1 (Homo sapiens, UniProt P50613); test: Inhibition of CDK7/Cyclin H/MNAT1 (unknown origin) using 5-FAM-YSPTSPSYSPTSPSYSPTSPSKKK as substrate in presence of ATP by spectroscopic analysis; type: protein-complex assay
[10] = target: CDK2/Cyclin A2 (Homo sapiens) (UniProt P24941+P20248); test: Inhibition of CDK2/Cyclin A2 (unknown origin) at 10 uM incubated for 40 mins in presence of ATP by Kinase-Glo Plus luminescence kinase assay; type: protein-complex assay
CDK2/Cyclin A2 [11] = target: T1, CDK2/Cyclin A2; test: Inhibition of CDK2/Cyclin A2 (unknown origin) incubated for 40 mins in presence of ATP by Kinase-Glo Plus luminescence kinase assay; type: protein-complex assay
[12] = system: Panel NCI-60 (60 carcinoma cell lines); test: Antiproliferative activity against human Panel NCI-60 (60 carcinoma cell lines) assessed as reduction in cell viability at 10 uM; type: functional
[13] = target: T2, Cyclin-dependent kinase 2
Description: Inhibition of CDK2 (unknown origin)

MCF7 [14] = test: Cytotoxicity against human MCF7 cells assessed as reduction in cell viability by MTT assay; type: functional, cell-based
MCF7 [15] = test: Antiproliferative activity against human MCF7 cells assessed as reduction in cell proliferation incubated for 3 days by calcein AM staining based fluorescent analysis; type: functional; conditions: MCF7, 72 h
K562 = test: Antiproliferative activity against human K562 cells assessed as reduction in cell proliferation incubated for 3 days by calcein AM staining based fluorescent analysis; type: functional; conditions: K562, 72 h
HeLa [16] = test: Antiproliferative activity against human HeLa cells assessed as reduction in cell viability incubated for 3 days by MTT assay; type: functional, cell-based; conditions: 72 h
B16-F10 = test: Antiproliferative activity against mouse B16-F10 cells assessed reduction in cell proliferation; type: functional, cell-based
MCF7 [17] = test: Antiproliferative activity against human MCF7 cells assessed reduction in cell proliferation; type: functional, cell-based
Histone deacetylase = test: Inhibition of HDAC (unknown origin); type: protein assay, Homo sapiens
[18] = target: Cyclin-dependent kinase 2/cyclin E1 (Homo sapiens, UniProt P24941); test: Inhibition of CDK2/cyclin E1 (unknown origin) expressed in Sf9 cells using histone H1 as substrate in presence of ATP by microplate reader analysis

Sequence of CDK9/cyclin T1 (O60563 whole entry): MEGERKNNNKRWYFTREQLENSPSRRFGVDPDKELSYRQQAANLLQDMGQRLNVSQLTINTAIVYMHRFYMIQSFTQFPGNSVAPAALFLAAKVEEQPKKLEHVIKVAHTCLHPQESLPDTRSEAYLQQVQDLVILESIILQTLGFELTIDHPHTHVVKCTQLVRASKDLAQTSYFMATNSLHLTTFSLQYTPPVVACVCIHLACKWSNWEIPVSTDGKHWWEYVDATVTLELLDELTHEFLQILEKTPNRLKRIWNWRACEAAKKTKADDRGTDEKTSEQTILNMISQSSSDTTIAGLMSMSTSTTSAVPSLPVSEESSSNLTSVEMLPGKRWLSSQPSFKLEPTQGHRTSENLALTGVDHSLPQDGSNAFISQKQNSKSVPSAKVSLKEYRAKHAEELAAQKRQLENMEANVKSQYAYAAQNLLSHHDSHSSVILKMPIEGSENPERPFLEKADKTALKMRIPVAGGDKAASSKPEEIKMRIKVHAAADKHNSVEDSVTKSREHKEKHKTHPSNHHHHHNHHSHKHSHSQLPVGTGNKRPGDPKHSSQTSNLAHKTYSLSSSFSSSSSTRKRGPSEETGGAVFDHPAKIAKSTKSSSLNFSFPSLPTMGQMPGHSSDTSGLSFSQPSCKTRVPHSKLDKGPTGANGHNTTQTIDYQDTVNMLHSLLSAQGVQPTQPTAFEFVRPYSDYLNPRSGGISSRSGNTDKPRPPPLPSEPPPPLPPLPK
Sequence of CDK9/cyclin T1 (P50750 whole entry): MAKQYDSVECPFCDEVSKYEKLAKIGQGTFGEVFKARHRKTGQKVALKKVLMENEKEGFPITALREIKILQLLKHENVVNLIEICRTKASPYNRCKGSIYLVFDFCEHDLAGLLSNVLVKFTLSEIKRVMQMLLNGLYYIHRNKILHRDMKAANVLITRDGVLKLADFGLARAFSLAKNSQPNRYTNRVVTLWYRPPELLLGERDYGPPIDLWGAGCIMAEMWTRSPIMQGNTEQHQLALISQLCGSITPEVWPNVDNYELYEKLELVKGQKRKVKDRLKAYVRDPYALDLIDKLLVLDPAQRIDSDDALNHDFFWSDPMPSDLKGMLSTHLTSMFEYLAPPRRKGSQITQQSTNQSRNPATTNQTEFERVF
Sequence of Cyclin-dependent kinase 1 (P06493 whole entry): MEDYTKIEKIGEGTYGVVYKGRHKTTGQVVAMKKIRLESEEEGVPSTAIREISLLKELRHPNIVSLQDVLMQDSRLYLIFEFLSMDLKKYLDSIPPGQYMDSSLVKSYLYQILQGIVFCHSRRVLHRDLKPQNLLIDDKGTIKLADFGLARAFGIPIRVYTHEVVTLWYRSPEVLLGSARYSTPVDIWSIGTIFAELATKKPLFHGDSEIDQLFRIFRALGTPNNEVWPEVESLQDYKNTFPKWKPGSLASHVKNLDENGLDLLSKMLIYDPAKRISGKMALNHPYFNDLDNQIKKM
Sequence of CDK7/Cyclin H/MNAT1 (P51946 whole entry): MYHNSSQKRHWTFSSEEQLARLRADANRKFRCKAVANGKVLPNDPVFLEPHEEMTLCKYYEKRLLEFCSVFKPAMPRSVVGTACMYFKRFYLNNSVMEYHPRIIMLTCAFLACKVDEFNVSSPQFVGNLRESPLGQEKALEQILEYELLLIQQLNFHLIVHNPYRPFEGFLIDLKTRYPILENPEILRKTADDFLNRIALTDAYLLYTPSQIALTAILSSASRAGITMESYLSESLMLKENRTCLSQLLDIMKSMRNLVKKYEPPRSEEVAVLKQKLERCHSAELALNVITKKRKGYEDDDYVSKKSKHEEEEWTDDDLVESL
Sequence of CDK7/Cyclin H/MNAT1 (P50613 whole entry): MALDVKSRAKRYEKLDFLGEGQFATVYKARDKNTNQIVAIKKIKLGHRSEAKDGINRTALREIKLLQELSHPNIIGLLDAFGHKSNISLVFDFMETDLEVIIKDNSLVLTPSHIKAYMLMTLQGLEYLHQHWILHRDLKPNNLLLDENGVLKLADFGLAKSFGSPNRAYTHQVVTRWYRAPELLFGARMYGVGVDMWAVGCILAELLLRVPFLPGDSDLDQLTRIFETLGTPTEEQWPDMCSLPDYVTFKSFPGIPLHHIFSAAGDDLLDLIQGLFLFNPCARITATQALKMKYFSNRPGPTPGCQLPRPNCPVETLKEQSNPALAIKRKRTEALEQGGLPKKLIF
Sequence of CDK7/Cyclin H/MNAT1 (P51948 whole entry, further chain): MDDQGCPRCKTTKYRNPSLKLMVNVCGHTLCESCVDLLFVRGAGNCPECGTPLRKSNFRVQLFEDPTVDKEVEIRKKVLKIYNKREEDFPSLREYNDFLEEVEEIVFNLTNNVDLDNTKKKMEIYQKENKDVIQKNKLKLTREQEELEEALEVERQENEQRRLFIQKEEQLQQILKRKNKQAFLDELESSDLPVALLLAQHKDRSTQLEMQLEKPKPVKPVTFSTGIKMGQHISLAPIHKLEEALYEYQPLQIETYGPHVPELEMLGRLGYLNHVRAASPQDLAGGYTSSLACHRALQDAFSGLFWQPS

O=C(c1cnn(-c2cc(NCc3ccccc3)ncn2)c1)N1CCOCC1
IC50 (CDK2/Cyclin A2 [1]): < 0.02 µM

COc1ccc(-n2c(-c3ccccc3)c(-c3ccccc3)c3c(SCC(=O)N/N=C\c4ccc(N(C)C)cc4)ncnc32)cc1
Activity [2]: <50%

CCOC(=O)C1=C(C)n2nc(Nc3ccccc3)c(C(N)=O)c2NC1c1ccc(F)cc1 (configuration not stated)
IC50 (A549): 30 µM
IC50 (Caco-2): 29.3 µM
IC50 (MCF7 [3]): 14.1 µM
IC50 (HepG2): 24.2 µM

Cc1ccc(S(=O)(=O)Nc2ccc(-c3ccnc(Nc4ccc(S(=O)(=O)Nc5nccc(C)n5)cc4)c3C#N)cc2)cc1
IC50 [4]: 1.79 µM
IC50 (MCF7 [5]): 18.3 µM

O=c1[nH]cc(-c2cccc(F)c2F)c2nccn12
IC50 [6]: 4.8 µM

C/C(=N\N=C\c1ccccc1)c1c(O)c2ccccc2oc1=O
Ki (CDK9/cyclin T1): 0.00326 µM

CCOC(=O)C1=C(CCl)NC(=O)NC1c1ccc(OCc2cn(CC3=C(C(=O)OCC)C(c4ccc([N+](=O)[O-])cc4)NC(=O)N3)nn2)cc1 (configuration not stated)
IC50 (HeLa [7]): 18 µM

Nc1ccc(/N=N/c2ccc(-c3nc4ncccc4[nH]3)cc2)cc1
IC50 (MCF7 [8]): 2.84 µM
IC50 (HCT-116): 1.83 µM

O=C(Nc1ccc(O)cc1)c1cnn(-c2cc(NCc3ccccc3)ncn2)c1
IC50 (CDK2/Cyclin A2 [1]): < 0.02 µM

CC(=O)N1N=C(c2c(O)c3ccccc3oc2=O)CC1c1ccccc1Cl (configuration not stated)
Ki [9]: 0.00035 µM

CN(C)C/C=C/C(=O)Nc1ccc(C(=O)N[C@@]2(C)CCC[C@@H](Nc3ncc(Cl)c(-c4c[nH]c5ccccc45)n3)C2)nc1
IC50 (CDK7/Cyclin H/MNAT1): 0.02 µM

CCOC(=O)c1cnn2c(-c3ccc(Cl)cc3)nc(NCc3ccccc3)nc12
inhibition [10]: 82.4%
IC50 (CDK2/Cyclin A2 [11]): 2.09 µM
inhibition at 10 µM [12]: 41.8%

O=C1CC(=O)N(c2ccc(F)cc2)C(=S)N1C(=O)c1ccccc1
IC50 [13]: 4.5 µM

O=C(CCn1cc(COC(=O)c2c[nH]c3ccccc23)nn1)NC(CC(=O)c1cc2ccccc2oc1=O)c1ccccc1Cl (configuration not stated)
IC50 (MCF7 [14]): 17.5 µM

CN1CCN(C(=O)c2cnn(-c3cc(NCc4ccccc4)ncn3)c2)CC1
IC50 (CDK2/Cyclin A2 [1]): < 0.02 µM

O=C(Oc1nc(SCCc2ccccc2)nc2[nH]ncc12)c1cc2ccccc2o1
IC50 (MCF7 [15]): 18.9 µM
IC50 (K562): 19.8 µM

CCOC(=O)C1=C(Cn2cc(COc3ccccc3C3NC(=O)NC(CCl)=C3C(=O)OCC)nn2)NC(=O)NC1c1ccc([N+](=O)[O-])cc1 (configuration not stated)
IC50 (HeLa [7]): 18 µM

CN(C)c1ccc(-c2cc(-c3c(O)c4ccccc4oc3=O)nc(N)c2C#N)cc1
Ki (CDK9/cyclin T1): 0.00326 µM

COc1cccc2c1C(=O)c1c(O)c3c(c(O)c1C2=O)C[C@@](O)(C(=O)CO)C[C@@H]3O[C@H]1C[C@H](N)[C@H](O)[C@H](C)O1 [DOXORUBICIN]
IC50 (HeLa [16]): 1.11 µM

COc1ccc(NC(=O)c2cnn(-c3cc(NCc4ccccc4)ncn3)c2)cc1
IC50 (CDK2/Cyclin A2 [1]): < 0.02 µM

O=c1[nH]cc(-c2ccccc2F)c2nccn12
IC50 [6]: 3.2 µM

O=C(CCCn1cc(CNC2CC2)c(-c2ccccc2)n1)NO
IC50 (B16-F10): 2.53 µM
IC50 (MCF7 [17]): 2.96 µM
IC50 (Histone deacetylase): 2.76 µM
IC50 [13]: 3.7 µM

Cc1ccc(-n2cc(-c3ccccc3)c3c(SCC(=O)N/N=C\c4ccccc4[N+](=O)[O-])ncnc32)cc1
Activity [2]: <50%

CCCCCSc1nc(OC(=O)c2ccccc2)c2cn[nH]c2n1
IC50 (MCF7 [15]): 18.9 µM
IC50 (K562): 19.8 µM
IC50 [18]: 14.8 µM

CCCCCSc1nc(Nc2ccc(SC)cc2)c2cn[nH]c2n1
IC50 (MCF7 [15]): 19.2 µM
IC50 (K562): 19.9 µM
IC50 [18]: 8.8 µM

CC(=O)C(=NNc1ccc(-c2nc3ncccc3[nH]2)cc1)C(C)=O
IC50 (MCF7 [8]): 2.11 µM
IC50 (HCT-116): 1.69 µM

O=c1[nH]cc(-c2ccccc2Cl)c2nccn12
IC50 [6]: 1.5 µM

CCCCCSc1nc(OC(=O)c2cc3ccccc3o2)c2cn[nH]c2n1
IC50 (MCF7 [15]): 18.9 µM
IC50 (K562): 19.8 µM
IC50 [18]: 8.8 µM

CCOC(=O)CSc1ncnc2c1c(-c1ccccc1)c(-c1ccccc1)n2-c1ccc(C)cc1
Activity [2]: <50%
